Experiments:
[1] = test system: TNFα production by peripheral blood mononucleocytes stimulated with LPS; assay: Inhibition of TNFα production by human monocytes stimulated with LPS; assay type: cell-based; details: LPS 10 ng/ml, 24 hours, ELISA
Procedure: The compounds were dissolved in DMSO at a final concentration of 10 mM.
The solutions for the assay were prepared by diluting the mother solutions in RPMI 1640 with the addition of 1% FCS and 0.01% DMSO and were filtered with 0.2 μm filters.
The peripheral blood mononucleocytes were obtained from blood from healthy donors by separation in a Ficoll-Hypaque gradient [C. G. Figdor, et al. Blood, 1982, 60: 46-53]. The cells were sown in 96-well plates, at a concentration of approx. 500,000 cells per well, suspended in RPMI 1640 containing 1% FCS and were incubated at 37° C. in the presence of different concentrations (from 10^−6 to 10^−11M) of the compounds to be investigated. After 1 hour, LPS was added (at a final concentration of 10 ng/ml; obtained from E. coli 055:B5) and the plates were incubated at 37° C. for a further 24 hours. At the end of this period, the supernatants were collected and used for the determination of TNFα content by means of ELISA (DuoSet ELISA kit; R&D Systems, Minneapolis, Minn., USA).
The concentration of TNFα was calculated using a calibration curve and the IC50 values (the concentration which brings about 50% inhibition of the production of the cytokine) were calculated from the curve obtained by plotting the percentage inhibition values for each individual concentration of the compound under investigation.

[2] = test system: human hepatoma cell line Hep-G2; assay: Cytotoxicity towards tumour cells in vitro (Cell Titer 96 formazane colorimetric assay); assay type: cell-based; details: 48 h, percentage inhibition of the formation of formazane relative to the control
Procedure: The cytotoxicity of some compounds described in the preceding Examples was evaluated in vitro on human hepatoma cell line Hep-G2, by means of a commercial colorimetric method (Cell Titer 96® Aque ous One Solution Cell Proliferation Assay—Promega); the method determines the number of viable cells on the basis of their capacity to metabolise a tetrazolium salt producing formazane. The quantity of formazane produced is proportional to the number of viable cells.
The Hep-G2 cells are distributed 96 well microplates at a density of 4×10^4 cells/well (100 μl), in M199 medium containing 10% foetal bovine serum and supplements (complete medium).
After 24 hours' incubation (37° C., 5% CO2, 90% humidity), the cells are washed once and the medium is replenished with 200 μl of complete medium containing the substances to be tested at the final concentration of 10^−5, 10^−6 and 10^−7M. The test is performed in triplicate.
The plates are incubated for a further 48 h, at the end of which 100 μl of medium are removed and 20 μl/well of staining solution are added in accordance with the supplier's instructions. Optical density (λ=490 nm) is read after 1 hour's incubation at 37° C. using a plate reader (Victor2—Wallac Perkin Elmer).

| SMILES | IC50 [1] | Cytotoxicity at 10^−5 M [2] | Cytotoxicity at 10^−6 M [2] | IC50 ([1]; Monocyte) |
| --- | --- | --- | --- | --- |
| O=C(NO)c1ccc(NC(=O)[C@H](Cc2ccc3ccccc3c2)NC(=O)c2ccc3c(c2)OCO3)cc1 [Example 2t, N-[1(S)-(4-hydroxycarbamoyl-phenylcarbamoyl)-2-naphthalen-2-yl-ethyl]-amide of benzo[1,3]dioxole-5-carboxylic acid] | 4.8 nM | 79.3% | 48.5% |  |
| O=C(NO)c1ccc(NC(=O)[C@@H](Cc2ccc3ccccc3c2)NC(=O)c2cncc(Br)c2)cc1 [Example 2n, 5-Bromo-N-[1(R)-(4-hydroxycarbamoyl-phenylcarbamoyl)-2-naphthalen-2-yl-ethyl]-nicotinamide] |  | 68.2% | 15.9% | 6.8 nM |
| O=C(NO)c1ccc(NC(=O)[C@@H](Cc2ccc3ccccc3c2)NC(=O)c2ccc3c(c2)OCO3)cc1 [Example 2r, N-[1(R)-(4-hydroxycarbamoyl-phenylcarbamoyl)-2-naphthalen-2-yl-ethyl]-amide of benzo[1,3]dioxole-5-carboxylic acid] | 1.7 nM | 72.5% | 16.6% |  |

Reference: patent publication US7635788B2, “Alpha-amino acid derivatives with antiinflammatory activity” (Italfarmaco SpA, priority 2004, dated 2009)
